Experimental data taken from patent US8993616B2, “(aza)indole derivative and use thereof for medical purposes” (Kissei Pharmaceutical Co., Ltd., priority 2007, dated 2015).

Legend:
[1] = molecular target: Xanthine oxidase (from bovine milk, Sigma) (Bos taurus (Bovine), UniProt P80457); assay: Xanthine oxidase inhibitory activity; assay type: biochemical; settings: xanthine substrate, 10 minutes at room temperature, absorbance at 290 nm
Description: (1) Preparation of Test Compounds
Test compounds were dissolved in DMSO (Wako) at 40 mM concentration and then diluted to intended concentrations with phosphate-buffered saline (PBS).
(2) Method for Measurement
Xanthine oxidase (from bovine milk, Sigma) was prepared with phosphate-buffered saline (PBS) at 0.02 units/mL, and then the solution was added to 96 well plates at 50 μL/well. In addition, test compounds diluted with PBS were added at 50 μL/well. Xanthine (Wako) at 200 μM prepared with PBS was added at 100 μL/well, and the reaction was conducted for 10 minutes at room temperature. Absorbance at 290 nm was measured using a microplate reader SpectraMax Plus 384 (Molecular device). The absorbance under a condition without xanthine is 0%, and control without test compounds is 100%. Fifty % inhibitory concentration of a test compound (IC50) was calculated (Table 60). Ex. No in the table indicates Example number.

[2] = system: BBMV from human kidney cortex (uric acid uptake); assay: Inhibitory activity of uric acid transport with brush-border membrane vesicles (BBMV); assay type: biochemical; settings: 10 μM test compound; uptake of 14C-labeled uric acid into human kidney cortex BBMV, 20 seconds
Description: Inhibitory activity of uric acid transport of test compounds was performed on the basis of methods described in a reference (Am. J. Physiol. 266 (Renal Fluid Electrolyte Physiol. 35): F797-F805, 1994) with a partial modification.
(1) Preparation of BBMV from Human Kidney Cortex
BBMV from human kidney cortex were purchased from KAC. Renal cortex was dissected from human kidney and cut into small pieces. Then, the cortex was homogenized in 5 volumes of ice-cold isotonic buffer (300 mM mannitol, 5 mM ethylene glycol-bis-(β-aminoethylether)-N,N,N′,N′-tetraacetic acid (EGTA), 12 mM tris(hydroxymethyl)aminomethane (Tris).HCl, pH 7.4). After adding 1 M magnesium chloride to a final concentration of 12 mM, and then the suspension was mixed and allowed to stand on ice for 15 minutes. […] After centrifugation at 30,000×g for 30 minutes at 4° C., the pellet was resuspended in buffer 2, and then the protein concentration was determined. […]
BBMV were thawed on ice. […] The uptake of uric acid into BBMV was measured by the rapid-filtration technique. […] Furthermore, filters were washed twice with 3 mL of stop solution and dissolved in 10 mL of Filter-Count (PerkinElmer), and the radioactivity was counted in a liquid scintillation counter (PerkinElmer). The radioactivity associated with the filters in the absence of BBMV was used as corrections. […]

Xanthine oxidase (from bovine milk, Sigma), sequence (P80457 whole entry): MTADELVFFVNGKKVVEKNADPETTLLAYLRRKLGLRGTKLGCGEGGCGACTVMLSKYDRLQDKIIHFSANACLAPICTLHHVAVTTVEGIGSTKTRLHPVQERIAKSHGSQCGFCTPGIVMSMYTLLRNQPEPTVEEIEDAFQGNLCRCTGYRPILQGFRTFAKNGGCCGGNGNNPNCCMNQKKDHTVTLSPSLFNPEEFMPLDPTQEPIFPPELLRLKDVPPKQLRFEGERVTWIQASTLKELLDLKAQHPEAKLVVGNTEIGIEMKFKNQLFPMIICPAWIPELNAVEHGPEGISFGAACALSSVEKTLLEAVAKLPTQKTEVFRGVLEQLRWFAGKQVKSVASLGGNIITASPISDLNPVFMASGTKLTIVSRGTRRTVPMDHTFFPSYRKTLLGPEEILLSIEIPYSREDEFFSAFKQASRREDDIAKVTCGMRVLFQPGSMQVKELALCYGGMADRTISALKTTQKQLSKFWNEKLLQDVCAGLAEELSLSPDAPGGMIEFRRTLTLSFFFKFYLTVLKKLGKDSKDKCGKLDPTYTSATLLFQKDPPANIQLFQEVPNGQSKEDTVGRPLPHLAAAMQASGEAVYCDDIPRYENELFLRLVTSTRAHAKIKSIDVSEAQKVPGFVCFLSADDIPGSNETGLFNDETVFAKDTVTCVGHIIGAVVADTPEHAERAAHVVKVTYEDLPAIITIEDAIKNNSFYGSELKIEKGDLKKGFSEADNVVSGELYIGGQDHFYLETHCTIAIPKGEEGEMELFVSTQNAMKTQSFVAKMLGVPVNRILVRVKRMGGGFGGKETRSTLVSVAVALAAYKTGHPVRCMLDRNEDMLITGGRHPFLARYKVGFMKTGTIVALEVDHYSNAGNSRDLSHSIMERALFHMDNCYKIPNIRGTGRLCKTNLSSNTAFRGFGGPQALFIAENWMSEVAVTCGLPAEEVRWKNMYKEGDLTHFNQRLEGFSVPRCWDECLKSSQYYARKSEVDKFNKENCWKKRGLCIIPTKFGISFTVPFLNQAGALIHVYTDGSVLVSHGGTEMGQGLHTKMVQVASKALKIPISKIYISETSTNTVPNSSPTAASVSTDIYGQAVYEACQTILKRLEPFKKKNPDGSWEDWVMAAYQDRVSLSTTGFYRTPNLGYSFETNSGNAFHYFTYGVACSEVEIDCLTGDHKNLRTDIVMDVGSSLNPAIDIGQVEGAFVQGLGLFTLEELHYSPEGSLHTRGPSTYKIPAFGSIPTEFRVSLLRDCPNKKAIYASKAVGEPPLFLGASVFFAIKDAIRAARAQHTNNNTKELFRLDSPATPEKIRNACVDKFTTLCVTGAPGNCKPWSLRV

How did the IC50 [1] turn out when `CC(C)c1ccc2c(C#N)cn(-c3ccc(C(=O)O)c(O)c3)c2c1` [Example 237] was run?
The IC50 was 12.6 nM.

And the inhibition % [2]?
The inhibition % was 64%.
